Read-outs that look alike come from different tables or passages of the source.
Test system: HIV1 IIIb
Experiment: microbe, parasite or virus in culture
Type: cell-based
Conditions: Human immunodeficiency virus 1, IIIB; for viability at 10 µg/mL: 10 ug/ml; for viability at 0.1 µg/mL: 0.1 ug/ml; for viability at 1 µg/mL: 1 ug/ml; for viability at 100 µg/mL: 100 ug/ml; for viability at 4.07 µg/mL: 4.07 ug/ml; for viability at 34.6 µg/mL: 34.6 ug/ml; for viability at 29 µg/mL: 29 ug/ml; for viability at 24.8 µg/mL: 24.8 ug/ml; for viability at 4.7 µg/mL: 4.7 ug/ml, virus kill 22.0%
From the text: In-vitro Screening Anti--HIV XTT Assay
This assay, which is available to the public by the National Cancer Institute, utilizes colorimetry based on the production of a colored formazin from a tetrazolium salt by viable cells, to develop a safe, rapid and quantitative measure of HIV cytopathology. The assay is a modification of the previously described screening method for the detection of anti-tumor drug cytotoxicity (D. A. Scudiero, et al, Cancer Res, 48, 4827-4833 (1988)). It involves the plating of susceptible human "host" cells with and without virus in microculture plates, adding various concentrations of the respective test compounds, incubating the plates for seven days, during which time infected, non-drug treated control cells are largely or totally destroyed by the virus. The number of remaining viable cells are determined utilizing a calorimetric endpoint. A beneficial antiviral effect is indicated by a response % grater than the virus kill %, with 100% being optimal.
Anti-viral effect: Response (Viable Cells, determined by colorometric
absorbance of formazan dye produced) as % of uninfected controls
Virus Source: HIV1 IIIb; C, Virus producing H9 cells; V, cell free virus
Virus Kill: Infected untreated cells as % of uninfected cell controls
*: Culture redosed with compound after 3 days

[1] = H9, 168 h, read-out: Antiviral Effect (viable cells as % of uninfected controls), run 1, source C (virus producing H9 cells), virus kill 21.0%

Question: With CCCCCCCCCCC[C@@H]1O[C@@H]1C(=O)O (relative stereo) [Example 19, (2S*-cis)-3-Undecyloxiranecarboxylic Acid] as the molecule, how does the viability at 10 µg/mL (168 h, read-out: Antiviral Effect (viable cells as % of uninfected controls), run 4, source V (cell free virus), virus kill 57.0%) read?
Answer: The viability at 10 µg/mL was 63.9%.

Question: And the viability at 10 µg/mL (168 h, read-out: Antiviral Effect (viable cells as % of uninfected controls), run 5, source V (cell free virus), virus kill 26.0%)?
Answer: Its viability at 10 µg/mL is 38.8%.

Question: What about the viability at 0.1 µg/mL (168 h, read-out: Antiviral Effect (viable cells as % of uninfected controls), run 6, source V (cell free virus), virus kill 19.0%) of the same molecule?
Answer: The viability at 0.1 µg/mL was 27.6%.

Question: And the viability at 1 µg/mL (168 h, read-out: Antiviral Effect (viable cells as % of uninfected controls), run 7*, source V (cell free virus), virus kill 25.0%, culture redosed with compound after 3 days)?
Answer: The viability at 1 µg/mL was 12.5%.

Question: What about the viability at 1 µg/mL [1] of the same molecule?
Answer: Its viability at 1 µg/mL is 22.6%.

Question: What about the viability at 10 µg/mL (H9, 168 h, read-out: Antiviral Effect (viable cells as % of uninfected controls), run 2, source C (virus producing H9 cells), virus kill 15.0%) of the same molecule?
Answer: The viability at 10 µg/mL was 55.7%.

Question: What about the viability at 1 µg/mL (H9, 168 h, read-out: Antiviral Effect (viable cells as % of uninfected controls), run 3, source C (virus producing H9 cells), virus kill 13.0%) of the same molecule?
Answer: The viability at 1 µg/mL was 11.6%.

Question: Which viability at 100 µg/mL (168 h, read-out: Antiviral Effect (viable cells as % of uninfected controls), run 6, source V (cell free virus), virus kill 55.0%) does the source give for CCCCCCCCCCC[C@H]1O[C@@H]1C(=O)O (relative stereo) [Example 20, (2S*-trans)-3-Undecyloxiranecarboxylic Acid] here?
Answer: Its viability at 100 µg/mL is 75.7%.

Question: What about the viability at 100 µg/mL (168 h, read-out: Antiviral Effect (viable cells as % of uninfected controls), run 7, source V (cell free virus), virus kill 55.0%) of the same molecule?
Answer: The viability at 100 µg/mL was 84.3%.

Question: And the viability at 100 µg/mL (168 h, read-out: Antiviral Effect (viable cells as % of uninfected controls), run 8, source V (cell free virus), virus kill 24.0%)?
Answer: Its viability at 100 µg/mL is 40.2%.

Question: What about the viability at 100 µg/mL (168 h, read-out: Antiviral Effect (viable cells as % of uninfected controls), run 9, source V (cell free virus), virus kill 24.0%) of the same molecule?
Answer: Its viability at 100 µg/mL is 72.5%.

Question: What about the viability at 4.07 µg/mL (168 h, read-out: Antiviral Effect (viable cells as % of uninfected controls), run 10, source V (cell free virus), virus kill 25.0%) of the same molecule?
Answer: Its viability at 4.07 µg/mL is 45.5%.

Question: And the viability at 4.07 µg/mL (168 h, read-out: Antiviral Effect (viable cells as % of uninfected controls), run 11*, source V (cell free virus), virus kill 23.0%, culture redosed with compound after 3 days)?
Answer: Its viability at 4.07 µg/mL is 87.4%.

Question: What about the viability at 10 µg/mL (H9, 168 h, read-out: Antiviral Effect (viable cells as % of uninfected controls), run 1, source C (virus producing H9 cells), virus kill 18.0%) of the same molecule?
Answer: The viability at 10 µg/mL was 22.6%.

Question: And the viability at 10 µg/mL (H9, 168 h, read-out: Antiviral Effect (viable cells as % of uninfected controls), run 2, source C (virus producing H9 cells), virus kill 14.0%)?
Answer: The viability at 10 µg/mL was 59.5%.

Question: And the viability at 100 µg/mL (H9, 168 h, read-out: Antiviral Effect (viable cells as % of uninfected controls), run 3, source C (virus producing H9 cells), virus kill 14.0%)?
Answer: Its viability at 100 µg/mL is 60.9%.

Question: What about the viability at 100 µg/mL (H9, 168 h, read-out: Antiviral Effect (viable cells as % of uninfected controls), run 4, source C (virus producing H9 cells), virus kill 10.0%) of the same molecule?
Answer: Its viability at 100 µg/mL is 10%.

Question: What about the viability at 100 µg/mL (H9, 168 h, read-out: Antiviral Effect (viable cells as % of uninfected controls), run 5, source C (virus producing H9 cells), virus kill 10.0%) of the same molecule?
Answer: The viability at 100 µg/mL was 10.2%.

Question: How did the viability at 34.6 µg/mL (168 h, read-out: Antiviral Effect (viable cells as % of uninfected controls), run 8, source V (cell free virus), virus kill 54.0%) turn out when CCCCCCCCC[C@@H]1O[C@@H]1C(=O)O [Example 22, (2-S-cis)-3-Nonyloxiranecarboxylic Acid] was run?
Answer: The viability at 34.6 µg/mL was 85.5%.

Question: And the viability at 29 µg/mL (168 h, read-out: Antiviral Effect (viable cells as % of uninfected controls), run 9, source V (cell free virus), virus kill 55.0%)?
Answer: Its viability at 29 µg/mL is 68.5%.

Question: What about the viability at 34.6 µg/mL (168 h, read-out: Antiviral Effect (viable cells as % of uninfected controls), run 10, source V (cell free virus), virus kill 26.0%) of the same molecule?
Answer: The viability at 34.6 µg/mL was 40.3%.

Question: And the viability at 29 µg/mL (168 h, read-out: Antiviral Effect (viable cells as % of uninfected controls), run 11, source V (cell free virus), virus kill 33.0%)?
Answer: The viability at 29 µg/mL was 41.9%.

Question: What about the viability at 24.8 µg/mL (168 h, read-out: Antiviral Effect (viable cells as % of uninfected controls), run 12, source V (cell free virus), virus kill 30.0%) of the same molecule?
Answer: The viability at 24.8 µg/mL was 23.1%.

Question: What about the viability at 24.8 µg/mL (168 h, read-out: Antiviral Effect (viable cells as % of uninfected controls), run 13*, source V (cell free virus), virus kill 20.0%, culture redosed with compound after 3 days) of the same molecule?
Answer: The viability at 24.8 µg/mL was 26.6%.

Question: And the viability at 10 µg/mL [1]?
Answer: Its viability at 10 µg/mL is 50.1%.

Question: What about the viability at 0.1 µg/mL (H9, 168 h, read-out: Antiviral Effect (viable cells as % of uninfected controls), run 2, source C (virus producing H9 cells), virus kill 20.0%) of the same molecule?
Answer: The viability at 0.1 µg/mL was 25.6%.

Question: And the viability at 0.1 µg/mL (H9, 168 h, read-out: Antiviral Effect (viable cells as % of uninfected controls), run 3, source C (virus producing H9 cells), virus kill 8.0%)?
Answer: The viability at 0.1 µg/mL was 9.5%.

Question: And the viability at 34.6 µg/mL (H9, 168 h, read-out: Antiviral Effect (viable cells as % of uninfected controls), run 4, source C (virus producing H9 cells), virus kill 16.0%)?
Answer: The viability at 34.6 µg/mL was 25.9%.

Question: And the viability at 29 µg/mL (H9, 168 h, read-out: Antiviral Effect (viable cells as % of uninfected controls), run 5, source C (virus producing H9 cells), virus kill 13.0%)?
Answer: The viability at 29 µg/mL was 18.5%.

Question: What about the viability at 34.6 µg/mL (H9, 168 h, read-out: Antiviral Effect (viable cells as % of uninfected controls), run 6, source C (virus producing H9 cells), virus kill 14.0%) of the same molecule?
Answer: Its viability at 34.6 µg/mL is 12.8%.

Question: What about the viability at 2.9 µg/mL (H9, 168 h, read-out: Antiviral Effect (viable cells as % of uninfected controls), run 7, 2.9 ug/ml, source C (virus producing H9 cells), virus kill 16.0%) of the same molecule?
Answer: Its viability at 2.9 µg/mL is 11.5%.

Question: Which results are given for COC(=O)[C@@H]1O[C@@H]1COCc1ccccc1 [Example 25, Methyl (2R-cis)-3-(benzyloxymethyl)oxirane Carboxylate]?
Answer: viability at 10 µg/mL (168 h, read-out: Antiviral Effect (viable cells as % of uninfected controls), run 4, source V (cell free virus), virus kill 55.0%): 46.5%; viability at 1 µg/mL (168 h, read-out: Antiviral Effect (viable cells as % of uninfected controls), run 5, source V (cell free virus), virus kill 27.0%): 49%; viability at 4.7 µg/mL (168 h, read-out: Antiviral Effect (viable cells as % of uninfected controls), run 6, source V (cell free virus)): 25.6%; viability at 4.7 µg/mL (168 h, read-out: Antiviral Effect (viable cells as % of uninfected controls), run 7*, source V (cell free virus), culture redosed with compound after 3 days): 28.5%; viability at 100 µg/mL (H9, 168 h, read-out: Antiviral Effect (viable cells as % of uninfected controls), run 1, source C (virus producing H9 cells), virus kill 20.0%): 28.6%; viability at 100 µg/mL (H9, 168 h, read-out: Antiviral Effect (viable cells as % of uninfected controls), run 2, source C (virus producing H9 cells), virus kill 13.0%): 19.5%; viability at 10 µg/mL (H9, 168 h, read-out: Antiviral Effect (viable cells as % of uninfected controls), run 3, source C (virus producing H9 cells), virus kill 11.0%): 12.3%

Question: Which results are given for COC(=O)[C@H]1O[C@H]1COCc1ccccc1 [Example 26, Methyl(2S-cis)-3-(benzyloxymethyl)oxirane carboxylate]?
Answer: viability at 10 µg/mL (168 h, read-out: Antiviral Effect (viable cells as % of uninfected controls), run 6, source V (cell free virus), virus kill 54.0%): 58.7%; viability at 100 µg/mL (168 h, read-out: Antiviral Effect (viable cells as % of uninfected controls), run 7, source V (cell free virus), virus kill 54.0%): 81.3%; viability at 1 µg/mL (168 h, read-out: Antiviral Effect (viable cells as % of uninfected controls), run 8, source V (cell free virus), virus kill 23.0%): 19.8%; viability at 100 µg/mL (168 h, read-out: Antiviral Effect (viable cells as % of uninfected controls), run 9, source V (cell free virus), virus kill 23.0%): 23.7%; viability at 487 µg/mL (168 h, read-out: Antiviral Effect (viable cells as % of uninfected controls), run 10, 487 ug/ml, source V (cell free virus), virus kill 30.0%): 28.1%; viability at 0.487 µg/mL (168 h, read-out: Antiviral Effect (viable cells as % of uninfected controls), run 11*, 0.487 ug/ml, source V (cell free virus), virus kill 25.0%, culture redosed with compound after 3 days): 26.6%; viability at 10 µg/mL (H9, 168 h, read-out: Antiviral Effect (viable cells as % of uninfected controls), run 1, source C (virus producing H9 cells), virus kill 17.0%): 20.8%; viability at 10 µg/mL (H9, 168 h, read-out: Antiviral Effect (viable cells as % of uninfected controls), run 2, source C (virus producing H9 cells), virus kill 13.2%): 39.4%; viability at 100 µg/mL (H9, 168 h, read-out: Antiviral Effect (viable cells as % of uninfected controls), run 3, source C (virus producing H9 cells), virus kill 13.2%): 54%; viability at 10 µg/mL (H9, 168 h, read-out: Antiviral Effect (viable cells as % of uninfected controls), run 4, source C (virus producing H9 cells), virus kill 12.0%): 13.8%; viability at 100 µg/mL (H9, 168 h, read-out: Antiviral Effect (viable cells as % of uninfected controls), run 5, source C (virus producing H9 cells), virus kill 12.0%): 16.3%

Source: patent publication US6153589A, “2,3-epoxy alcohols, acids and derivatives as anti retroviral chemotherapeutic agents” (The United States of America as represented by the …, priority 1992, dated 2000)
